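Step 1: Grow cells in 96-well plates. Step 2: Expose to compound for 48 hours at 5 concentrations. Step 3: Interpolate endpoints linearly; if unreached, use highest concentration. GI50 = concentration required for 50% inhibition of growth.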 Activity calls are given as the source filed them. Rule as the data show it: active = GI50 up to about 1.1 µM and inactive = higher.
Experiments:
Assay in all cases: growth of human tumour cells (NCI), 48 h
[1] = tested on: SF-268
[2] = tested on: CAKI-1
[3] = tested on: EKVX
[4] = tested on: NCI-H522
[5] = tested on: RPMI-8226
[6] = tested on: BT-549
[7] = tested on: HT-29
[8] = tested on: SK-MEL-28
[9] = tested on: NCI-H460
[10] = tested on: OVCAR-8
[11] = tested on: SK-MEL-5
[12] = tested on: MDA-MB-231
[13] = tested on: KM12
[14] = tested on: HOP-92
[15] = tested on: A498
[16] = tested on: SN12C
[17] = tested on: A549
[18] = tested on: MOLT-4
[19] = tested on: SR
[20] = tested on: OVCAR-4

Row | SMILES | GI50 [1] | GI50 [2] | GI50 [3] | GI50 [4] | GI50 [5] | GI50 [6] | GI50 [7] | GI50 [8] | GI50 [9] | GI50 [10] | GI50 [11] | GI50 [12] | GI50 [13] | GI50 [14] | GI50 [15] | GI50 [16] | GI50 [17] | GI50 [18] | GI50 [19] | GI50 [20]
1 | O=C1C(CN2CCCCC2)CCC1CN1CCCCC1 (stereo unspecified) | 49.8 µM (inactive) | 9.48 µM (inactive) | > 100 µM (inactive) | 5.35 µM (inactive) | 9.91 µM (inactive) | 19.1 µM (inactive) | 20.9 µM (inactive) | 20 µM (inactive) | > 100 µM (inactive) | 26.8 µM (inactive) | 43.9 µM (inactive) | 20.2 µM (inactive) | > 54.7 µM (inactive) | 23.2 µM (inactive) | 15.2 µM (inactive) | 30.4 µM (inactive) | > 96.6 µM (inactive) | 2.22 µM (inactive) | 1.6 µM (inactive) | 
2 | CCN(CC)C(=S)N/N=C/c1cc(OC)ccc1O | 1.87 µM (inactive) |  | 10.4 µM (inactive) | 3.85 µM (inactive) |  | 7.05 µM (inactive) | 7 µM (inactive) | 3.72 µM (inactive) | 1.66 µM (inactive) | 4.51 µM (inactive) | 6.22 µM (inactive) | 30.7 µM (inactive) | 1.7 µM (inactive) |  | 2.02 µM (inactive) | 5.79 µM (inactive) | 4.17 µM (inactive) | 2.09 µM (inactive) | 2.76 µM (inactive) | 3.56 µM (inactive)
3 | COC1CCC(OC2CC(C3(C)CCC4(CC(O)C(C)C(C(C)/C=C(\C)C(=O)C(C)CC(C)C(=O)O)O4)O3)OC3(OC(C4OC(O)(CO)C(C)CC4C)CC3C)C2C)OC1C (stereo unspecified) |  | 0.0982 µM (active) | 0.507 µM (active) | < 0.01 µM (active) | < 0.01 µM (active) | < 0.0324 µM (active) | < 0.0313 µM (active) | 0.0362 µM (active) | < 0.0144 µM (active) | < 0.0368 µM (active) | < 0.0201 µM (active) | 0.0621 µM (active) | 0.0753 µM (active) | 0.482 µM (active) | < 0.0169 µM (active) | < 0.0319 µM (active) | < 0.0154 µM (active) | < 0.01 µM (active) | < 0.01 µM (active) | 0.337 µM (active)
4 | COc1ccc2c(c1)[C@@]13CCCC[C@H]1[C@@H](C2)N(C)CC3=O | 17.2 µM (inactive) | 28.3 µM (inactive) | 18.5 µM (inactive) | 18.3 µM (inactive) | 25.6 µM (inactive) | 17.4 µM (inactive) | 21.5 µM (inactive) | 16.1 µM (inactive) | 20.8 µM (inactive) | 19.3 µM (inactive) | 22.6 µM (inactive) | 18.5 µM (inactive) | 18.1 µM (inactive) | 13.6 µM (inactive) |  | 21.4 µM (inactive) | 19.9 µM (inactive) | 19.7 µM (inactive) | 12.4 µM (inactive) | 16.1 µM (inactive)
5 | Clc1cc2nc(C3CCCCO3)[nH]c2cc1Cl (stereo unspecified) | 27.9 µM (inactive) | 29.1 µM (inactive) | 48.1 µM (inactive) | 2.59 µM (inactive) | 12.8 µM (inactive) | 11.1 µM (inactive) | 3.5 µM (inactive) | > 60.3 µM (inactive) | 18.6 µM (inactive) | 17.7 µM (inactive) | 6.03 µM (inactive) | 34.3 µM (inactive) | 10.6 µM (inactive) | 35.7 µM (inactive) |  | 38.9 µM (inactive) | 15.1 µM (inactive) | 33.3 µM (inactive) | 4.49 µM (inactive) | 34.4 µM (inactive)
6 | CC1=CCC[C@H]2[C@](C)(CC3=CC(=O)C4SCCSC4C3=O)[C@@H](C)CC[C@]12C (stereo partly specified) |  | 25.2 µM (inactive) | 21.3 µM (inactive) |  | 14.1 µM (inactive) | 20.6 µM (inactive) |  | 18 µM (inactive) | 20 µM (inactive) | 19.2 µM (inactive) | 13.8 µM (inactive) | 13.2 µM (inactive) | 29 µM (inactive) | 31.4 µM (inactive) | 16.1 µM (inactive) | 14.7 µM (inactive) | 17.2 µM (inactive) | 21.6 µM (inactive) | 11.1 µM (inactive) | 24.6 µM (inactive)
7 | CC(C)Nc1[nH]c(C(=O)c2ccccc2)c(N)c1C(=S)Nc1ccccc1 | 67.8 µM (inactive) | > 100 µM (inactive) | > 100 µM (inactive) | 63.8 µM (inactive) |  | > 100 µM (inactive) | 27.9 µM (inactive) | 17.4 µM (inactive) | 57 µM (inactive) | 84.7 µM (inactive) | 28.9 µM (inactive) | 28.5 µM (inactive) | 31.7 µM (inactive) | > 100 µM (inactive) | 77.6 µM (inactive) | > 100 µM (inactive) | 90.6 µM (inactive) | 80.9 µM (inactive) | 43.5 µM (inactive) | 71.9 µM (inactive)
8 | c1csc(-c2cc(-c3ccsc3)cs2)c1 | > 100 µM (inactive) | > 100 µM (inactive) | 52.7 µM (inactive) |  | > 100 µM (inactive) | > 100 µM (inactive) | 41.4 µM (inactive) | > 100 µM (inactive) | > 100 µM (inactive) |  | > 100 µM (inactive) | > 100 µM (inactive) | > 100 µM (inactive) | > 100 µM (inactive) | > 100 µM (inactive) | > 100 µM (inactive) | 44.8 µM (inactive) | 87.1 µM (inactive) | 14.4 µM (inactive) | 40.6 µM (inactive)
9 | CCN(CC)c1ccc(/C=c2\nc(-c3ccccc3)n3c2nc2ccccc23)cc1 | 26.5 µM (inactive) | 0.885 µM (active) | 1.67 µM (inactive) |  | 1.48 µM (inactive) | 16.9 µM (inactive) | 1.89 µM (inactive) | 0.0231 µM (active) | 1.98 µM (inactive) | 9.79 µM (inactive) | 3.64 µM (inactive) | 14.8 µM (inactive) | 6.47 µM (inactive) | 68.7 µM (inactive) | 64.4 µM (inactive) | 16.8 µM (inactive) | 6.21 µM (inactive) | 1.63 µM (inactive) | 1.68 µM (inactive) | 3.17 µM (inactive)
10 | Cc1ccc(NC(=O)/C(Cc2cc(=O)oc3cc(O)ccc23)=N\NC(C)(C)C)cc1C | > 100 µM (inactive) | > 100 µM (inactive) |  |  | > 100 µM (inactive) | > 100 µM (inactive) | > 100 µM (inactive) | > 100 µM (inactive) | > 100 µM (inactive) | > 100 µM (inactive) | > 100 µM (inactive) | > 100 µM (inactive) | > 100 µM (inactive) | > 100 µM (inactive) | > 100 µM (inactive) | > 100 µM (inactive) | > 100 µM (inactive) | > 100 µM (inactive) | > 100 µM (inactive) | 68.9 µM (inactive)
11 | CN(C)CCCN1c2ccccc2CCc2cc([N+](=O)[O-])ccc21 | 20 µM (inactive) | 26.8 µM (inactive) | 33.9 µM (inactive) | 24.5 µM (inactive) | 21.5 µM (inactive) | 22.4 µM (inactive) | 21.4 µM (inactive) |  | 20 µM (inactive) | 24.6 µM (inactive) | 15.8 µM (inactive) | 22.2 µM (inactive) | 26.4 µM (inactive) |  | 25.5 µM (inactive) | 22.9 µM (inactive) | 24.6 µM (inactive) | 26.2 µM (inactive) | 32.1 µM (inactive) | 24.4 µM (inactive)
12 | [N-]=[N+]=CC(=O)C1CCN(c2ccccc2)C1=O (stereo unspecified) | > 10 µM (inactive) | > 10 µM (inactive) | > 10 µM (inactive) |  | > 10 µM (inactive) | > 10 µM (inactive) | > 10 µM (inactive) | > 10 µM (inactive) | > 10 µM (inactive) | > 10 µM (inactive) | > 10 µM (inactive) | > 10 µM (inactive) | > 10 µM (inactive) |  | > 10 µM (inactive) | > 10 µM (inactive) | > 10 µM (inactive) | > 10 µM (inactive) | > 10 µM (inactive) | > 10 µM (inactive)
13 | CCCN1CCC(=O)N(CCC(F)(F)C(F)(F)C(F)(F)C(F)(F)C(F)(F)C(F)(F)F)C1=S | > 100 µM (inactive) | > 100 µM (inactive) | > 100 µM (inactive) | > 100 µM (inactive) |  | > 100 µM (inactive) | 90.6 µM (inactive) | > 100 µM (inactive) | > 100 µM (inactive) | > 100 µM (inactive) | > 100 µM (inactive) | > 100 µM (inactive) | 71 µM (inactive) | > 100 µM (inactive) | > 100 µM (inactive) | > 100 µM (inactive) | > 100 µM (inactive) | > 100 µM (inactive) | > 100 µM (inactive) | > 100 µM (inactive)
14 | O=C1Nc2cc([N+](=O)[O-])ccc2N/C1=C/C(=O)c1ccc(Cl)cc1 | 11.7 µM (inactive) | 17.6 µM (inactive) | 15.7 µM (inactive) |  | 10.9 µM (inactive) | 5.27 µM (inactive) | 15.3 µM (inactive) | 10.6 µM (inactive) | 8.34 µM (inactive) | 8 µM (inactive) | 15.9 µM (inactive) | 5.83 µM (inactive) | 14.4 µM (inactive) | 16 µM (inactive) | 19.7 µM (inactive) |  | 10 µM (inactive) | 17 µM (inactive) | 12.2 µM (inactive) | 20.4 µM (inactive)
15 | CN(C)c1n/c(=N/Cc2ccco2)ss1 | 11.7 µM (inactive) | 30.5 µM (inactive) | 37.9 µM (inactive) | 0.307 µM (active) | 1.79 µM (inactive) | 18.6 µM (inactive) | 2.44 µM (inactive) | 11.6 µM (inactive) | 10.9 µM (inactive) | 31.7 µM (inactive) | 2.76 µM (inactive) | 15.8 µM (inactive) | 3.72 µM (inactive) |  | > 78 µM (inactive) | 31.6 µM (inactive) | 15.6 µM (inactive) | 5.73 µM (inactive) | 0.521 µM (active) | 30.3 µM (inactive)
